Results from PMC7286788 (ACS infectious diseases, 2019).
Where two headings read alike, the source gives them in different places.

Assays:
[1] = target: MraY/MurX (Mycolicibacterium smegmatis, UniProt A0R019); assay: Substrate tolerance of MurX/MraY, P-60 of M. smegmatis; type: biochemical, Mycobacterium smegmatis; conditions: P-60 of wild-type M. smegmatis (ATCC607)
[2] = target: T1, HyMurG (Hydrogenivirga sp. 128-5-R1-1, UniProt A8US35); assay: HPLC-based MurG assay, dose-response, HyMurG; type: biochemical; conditions: read-out: IC50 HyMurG; HPLC-based method; average of two-three experiments
T1 sequence (A8US35 1-350): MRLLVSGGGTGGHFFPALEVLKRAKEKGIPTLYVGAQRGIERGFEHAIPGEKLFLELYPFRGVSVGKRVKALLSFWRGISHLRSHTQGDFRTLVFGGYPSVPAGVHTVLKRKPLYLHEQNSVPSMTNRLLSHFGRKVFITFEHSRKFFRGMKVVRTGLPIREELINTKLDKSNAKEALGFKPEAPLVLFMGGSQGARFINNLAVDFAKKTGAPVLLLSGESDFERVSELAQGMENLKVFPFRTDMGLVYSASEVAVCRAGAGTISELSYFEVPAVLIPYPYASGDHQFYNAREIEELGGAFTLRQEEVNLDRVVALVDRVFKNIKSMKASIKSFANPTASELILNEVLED

[3] = target: T1, HyMurG; assay: UV-Vis-based MurG assay; type: biochemical; conditions: 50–100 μM
[4] = target: MsmegMraY (Mycolicibacterium smegmatis, UniProt A0R019); assay: biochemical; type: biochemical, Mycobacterium smegmatis; conditions: for IC50: read-out: IC50 MsmegMraY, HPLC-based method, average of two-three experiments
Sequence of MsmegMraY (A0R019 whole entry): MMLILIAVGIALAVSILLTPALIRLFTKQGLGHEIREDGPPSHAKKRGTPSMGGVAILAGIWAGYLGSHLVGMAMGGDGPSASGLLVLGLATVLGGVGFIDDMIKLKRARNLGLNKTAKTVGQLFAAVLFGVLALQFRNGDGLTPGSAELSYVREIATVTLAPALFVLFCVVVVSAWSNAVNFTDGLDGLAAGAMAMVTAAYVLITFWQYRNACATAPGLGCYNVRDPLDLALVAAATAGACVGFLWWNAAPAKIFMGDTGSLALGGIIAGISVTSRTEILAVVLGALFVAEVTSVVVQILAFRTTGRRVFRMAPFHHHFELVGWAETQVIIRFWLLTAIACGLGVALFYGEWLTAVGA

[5] = system: M. smegmatis (ATCC607); assay: MIC determination, resazurin, M. smegmatis; type: cell-based, Mycobacterium smegmatis; conditions: 7H9 with 0.5% tween 80, 3 days at 37 °C
[6] = system: Vero cell; assay: Cytotoxicity against Vero cells
[7] = target: MsmegMurG (Mycolicibacterium smegmatis, UniProt A0R016); assay: biochemical; set-up: species or system Mycobacterium smegmatis; conditions: read-out: IC50 MsmegMurG; HPLC-based method; average of two-three experiments
[8] = system: M. tuberculosis (H37Rv); assay: MIC determination, M. tuberculosis; type: cell-based, Mycobacterium tuberculosis; conditions: 7H9 containing OADC; 14 days
[9] = system: Vero cell
[10] = target: T1, HyMurG; assay: Kinetic studies with HyMurG; type: biochemical
[11] = cited from earlier work
[12] = target: T2, MurG of M. smegmatis (Mycolicibacterium smegmatis, UniProt A0R016); assay: Kinetic studies of MurG of M. smegmatis; type: biochemical, Mycobacterium smegmatis; conditions: P-60 of M. smegmatis; donor 8
T2 sequence (A0R016 1-385): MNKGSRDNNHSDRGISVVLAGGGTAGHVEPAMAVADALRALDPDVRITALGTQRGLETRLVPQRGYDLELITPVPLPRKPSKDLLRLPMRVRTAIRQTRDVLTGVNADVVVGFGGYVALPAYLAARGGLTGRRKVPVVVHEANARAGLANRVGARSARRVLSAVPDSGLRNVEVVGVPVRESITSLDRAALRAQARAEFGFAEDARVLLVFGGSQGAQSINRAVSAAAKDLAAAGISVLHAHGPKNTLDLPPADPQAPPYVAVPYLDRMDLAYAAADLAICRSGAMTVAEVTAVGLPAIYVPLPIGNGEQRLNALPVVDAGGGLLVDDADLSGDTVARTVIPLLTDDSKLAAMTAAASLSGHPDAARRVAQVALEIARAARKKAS

Sequence of MraY/MurX (A0R019 whole entry): as the sequence (A0R019 whole entry) above

## C/C(=C/COP(=O)(O)O)CCCC(C)CCCC(C)CCCC(C)C (centres unmarked) [(2Z)-phytyl phosphate]
[1]
  Formation of lipid I-N^ε-derivatives: did not provide the corresponding lipid I derivatives

## tunicamycin
[2]
  IC50: > 100000 nM
[3]
  Inhibition of MurG function / lipid II formation: did not inhibit
[4]; 50 μM, P-60, protocol B
  MurX activity after addition of inhibitor: terminated completely
[4]
  IC50: 2900 nM
[5]
  M. smegmatis (ATCC607) MIC: 6.25 to 12.5 µg/mL
[6]
  Vero cell cytotoxicity IC50: 1.56 µg/mL
[7]
  IC50: > 100000 nM
[8]
  M. tuberculosis (H37Rv) MIC: 12.5 µg/mL

## ristocetin A
[2]
  IC50: 960 nM
[9]
  Vero cell cytotoxicity IC50: >100 µg/mL
[4]
  Mode of MurX inhibition: non-competitive inhibition against Park’s nucleotide and prenyl-P
  IC50: 810 nM
[10]; ristocetin A 5 μM, Michaelis-Menten plots
  Mode of HyMurG inhibition: competes for the UDP-GlcNAc binding-site
[11]
  Binding affinity, times less than that of vancomycin: about 3.0 times
[5]
  M. smegmatis (ATCC607) MIC: <0.39 µg/mL
[7]
  IC50: 1400 nM
[8]
  M. tuberculosis (H37Rv) MIC: 0.5 µg/mL

## C55-lipid II-N^ε-C6-dansyl-FITC [Compound 9-C55]
[10]; HyMurG, donor 8
  Vmax for 9-C55 transformation: 0.67 µM/min
[12]
  Vmax for 9-C55 transformation: 0.56 µM/min
